{"source": "paper PMC5635289", "about": "“Differential Effects of Angelicin Analogues on NF-κB Activity and IL-8 Gene Expression in Cystic Fibrosis IB3-1 Cells” (Mediators of Inflammation, 2017)", "key": {"[1]": {"molecular_target": "T1, NF-κB p50 (Homo sapiens, UniProt P19838)", "T1 construct": "This assay was performed using purified NF-κB p50; purchased Promega", "T1 sequence (P19838 1-433 limits assumed)": "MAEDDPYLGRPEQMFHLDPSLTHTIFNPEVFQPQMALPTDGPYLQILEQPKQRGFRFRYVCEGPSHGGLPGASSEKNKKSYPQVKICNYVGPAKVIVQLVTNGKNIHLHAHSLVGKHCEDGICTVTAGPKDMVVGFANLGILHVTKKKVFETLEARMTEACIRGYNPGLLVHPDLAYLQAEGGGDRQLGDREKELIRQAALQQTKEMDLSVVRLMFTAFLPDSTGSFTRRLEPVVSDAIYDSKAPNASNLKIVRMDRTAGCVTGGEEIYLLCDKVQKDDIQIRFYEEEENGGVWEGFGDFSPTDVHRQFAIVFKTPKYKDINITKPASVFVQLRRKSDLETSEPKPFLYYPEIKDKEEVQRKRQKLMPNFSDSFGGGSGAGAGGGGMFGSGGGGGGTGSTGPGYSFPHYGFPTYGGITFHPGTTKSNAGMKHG", "experiment": "EMSA, inhibition of NF-κB/DNA interactions", "format": "binding", "conditions": "NF-κB p50 and 32P-labeled NF-κB oligonucleotide, MIC = minimal inhibitory concentration, 12.5 μM was the lowest concentration used", "protocol": "Electrophoretic mobility shift assays were performed using double-stranded ^32P-labeled oligonucleotides as target DNA. Binding reactions were set up as previously described in binding buffer (10% glycerol, 0.05% NP-40, 10 mM Tris-HCl pH 7.5, 50 mM NaCl, 0.5 mM DTT, and 10 mM MgCl2), in the presence of 0.1 μl/20 μl of NF-κB p50 (50 gsu) (Promega, Madison, WI, USA) and 0.25 ng of labeled oligonucleotide, in a total volume of 20 μl. After 30 min binding at room temperature, samples were electrophoresed at constant voltage (200 V for 30 min) through a low ionic strength (0.25 TBE buffer) (1 TBE/40.089 M Tris-borate, 0.002 M EDTA) on 6% polyacrylamide gels until the tracking dye (bromophenol blue) reached the bottom of a 16 cm slab. Gels were dried and exposed for autoradiography with intensifying screens at […]. In these experiments, DNA/protein complexes migrate through the gel with slower efficiency. In studies on the inhibitors of protein/DNA interactions, addition of the reagents was as follows: (i) nuclear factors, (ii) active principles, (iii) binding buffer, and (iv) labeled oligonucleotides mimicking the binding sites for TF to be modulated. The nucleotide sequence of double-stranded target DNA utilized in these experiments was 5′-CGC TGG GGA CTT TCC ACG G-3′ (sense strand, NF-κB). The synthetic oligonucleotides utilized in this study were purchased from Sigma Genosys (Sigma Genosys, Cambs, UK). To calculate the effective concentrations, three different autoradiograms obtained from different time exposures were scanned and compared to control EMSA performed without addition of angelicin analogues (two independent experiments were performed).\nThe effects of TMA derivatives on NF-κB- (nuclear factor-kappaB-) mediated induction of proinflammatory genes was verified first in vitro by electrophoretic mobility shift assay (EMSA) with the aim to verify and quantify the possible inhibition of NF-κB/DNA interactions. This assay was performed using purified NF-κB p50 and ^32P-labeled target NF-κB double-stranded oligonucleotide mimicking the NF-κB consensus sequence present within the IL-8 gene promoter."}, "[2]": {"system": "other cytokines, chemokines, and growth factors", "experiment": "Bioplex analysis of other secreted proteins in TNF-α-induced IB3-1 cells", "format": "cell-based, human", "conditions": "1 μM, TNF-α-stimulated IB3-1 cells, all secreted proteins analyzed except IP-10", "protocol": "(§1) The Bioplex cytokine assay is designed for the multiplexed quantitative measurement of multiple cytokines in a single well using as little as 50 μl of sample. In our experiments, the premixed multiplex beads (27-plex) of the Bioplex human cytokines were used. 50 μl of cytokine standards or samples (supernatants recovered from treated cells and diluted to 2 μg/μl) were incubated with 50 μl of anticytokine conjugated beads in 96-well filter plates for 30 min at room temperature with shaking. Plates were washed by vacuum filtration three times with 100 μl of Bioplex wash buffer, 25 μl of diluted detection antibody were added, and plates were incubated for 30 min at room temperature with shaking. After three filter washes, 50 μl of streptavidin-phycoerythrin were added, and the plates were incubated for 10 min at room temperature with shaking. Finally, plates were washed by vacuum filtration three times, beads were suspended in Bioplex assay buffer, and samples were analyzed on a Bio-Rad 96-well plate reader using the Bioplex Suspension Array System and Bioplex Manager software (Bio-Rad Laboratories Inc., Hercules, CA).\n(§2) In order to verify the effects on the secretion of IL-8 by IB3-1 cells, Luminex technology was employed to detect and quantify proteins secreted into the medium. […]"}, "[3]": {"system": "IP-10", "experiment": "Bioplex analysis of IP-10 secretion in TNF-α-induced IB3-1 cells", "format": "cell-based, human", "conditions": "1 μM, TNF-α-stimulated IB3-1 cells, three independent experiments", "protocol": "as §1, §2"}}}
{"smiles": "Cc1oc2c(C)cc3c(C)cc(=O)oc3c2c1C", "note": "[Compound 1]", "values": [{"measurement": "Inhibition of NF-κB/DNA complex (MIC)", "setting": "[1]", "value": "<12.5 (^∗) μM"}, {"measurement": "Variation of other secreted proteins", "setting": "[2]", "value": "less than 10%"}, {"measurement": "Increase of TNF-α-inducible IP-10", "setting": "[3]", "value": "more than twofold"}]}
